In US12286401B2, “Small molecules that sensitize HIV-1 infected cells to antibody dependent cellular cytotoxicity” (THE TRUSTEES OF THE UNIVERSITY OF PENNSYLVANIA, priority 2018, dated 2025):

Assays:
Type in all cases: cell-based
HIV-1CH58TF = experiment: Virus neutralization in TZM-bl assay; details: Human immunodeficiency virus 1; TZM-bl cells; read-out: IC50, inhibition of HIV-1CH58TF infection
Description: To evaluate the direct virus-neutralizing ability of the analogs, I, HIV-1CH58TF was incubated with indicated amounts of different compounds or DMSO for 1 hour at 37° C., then added to TZM-bl cells. After incubation for 48 h at 37° C., luciferase activity was measured. Relative infectivity was calculated as the percentage of the value seen in the absence of compound. To measure the ability of (S)-MCG-IV-210 to sensitize viral particles to neutralization by otherwise non-neutralizing 17b (FIG. 15F), HIV-1CH58TF was incubated with the indicated amounts of 17b in the presence of 0.5 μM (+)-BNM-III-170, 20 μM (S)-MCG-IV-210 or DMSO for 1 hour at 37° C., then added to TZM-bl cells. After incubation for 48 h at 37° C., luciferase activity was measured.
As a positive control, (+)-BNM-III-170 was used, which has been reported to inhibit HIV-1 infection at low micromolar concentrations. See, Melillo, ACS Med Chem Lett 7:330-334. […] While all tested MCG analogs also neutralized HIV-1CH58TF, they did so with only modest potency (FIG. 15E).

[1] = tested on: primary CD4 T cells infected with HIV-1CH58TF; experiment: Cell surface staining with A32-AF647 (State 2A, cluster A exposure); details: 50 μM compound
Description: FIGS. 14A-14D show the data for the cell surface staining with A32-AF647. Cells were then incubated with A32-AF647 together with 5 μg/ml 17b (FIG. 14A, FIG. 14B, 14C) or 1:1000 diluted HIV+ plasma from infected individuals (FIG. 14D) in the presence of DMSO, 50 μM (+)-BNM-III-170 or 50 μM (S)-MCG-IV-210 at 37° C. Mean fluorescence intensity (MFI) of A32-AF647 was measured by flow cytometry. FIG. 14E is a bar graph showing data for the VBE assay, comparing the binding capacity of different Abs, the relative ratio of the luciferase activity to the luciferase activity of 2G12. Data shown are the mean±SD of at least three independent experiments. Statistical significance was evaluated using Mann-Whitney unpaired t test (FIG. 14C) or Wilcoxon paired t test (FIG. 14D) (*, P<0.05; ns, not significant.).
To evaluate whether (S)-MCG-IV-210 was able to stabilize State 2A, primary CD4+ T cells were infected with the primary CH58 transmitted/founder (CH58 TF) virus and evaluated the exposure of the cluster A region with an Alexa-Fluor 647-conjugated A32 (A32-AF647) antibody in the presence or absence of CD4mc and the CoRBS 17b Ab, as reported. See, Richard, 2016, EbioMedicine doi:10.1016/j.ebiom.2016.09.004. […] Mean fluorescence intensity (MFI) of A32-AF647 was measured by flow cytometry. […]

[2] = tested on: uninfected bystander CD4+ T cells; experiment: Uninfected bystander CD4+ T cell recognition and ADCC; details: 50 μM
Description: FIG. 17A is a dot plot showing the ability of HIV+plasma to recognize uninfected bystander cells in the presence of 50 μM (+)-BNM-III-170 or (S)-MCG-IV-210 was evaluated by FACS. FIG. 17B is a dot showing the use of the uninfected eFluor 450+ cells as target cells for ADCC with autologous PBMC and 5 HIV+ plasma in the presence of 50 μM (+)-BNM-III-170 or (S)-MCG-IV-210. Statistical significance was evaluated using a paired t test (*, P<0.05; ****, P<0.0001; ns, not significant).
The capacity of (S)-MCG-IV-210 to protect uninfected bystander CD4+ T cells from ADCC responses was evaluated. Briefly, primary CD4+ T cells were infected with the NL4-3.ADA.GFP WT virus. The cell proliferation dye eFluor-450 was used to stain uninfected autologous CD4+ T cells, which were then added to the infected cells (eFluor-450-cells) and co-cultured for 72 h. The ability of HIV+ plasma to recognize uninfected bystander cells in the presence of 50 μM (+)-BNM-III-170 or (S)-MCG-IV-210 was evaluated by FACS (FIG. 17A). These uninfected eFluor 450+ cells were also used as target cells for ADCC with autologous PBMC and 5 HIV+ plasma in the presence of 50 μM (+)-BNM-III-170 or (S)-MCG-IV-210 (FIG. 17B).

Compound: NCCNC(=O)N1CCC[C@H](C(=O)Nc2ccc(Cl)c(F)c2)C1 [(S)-MCG-IV-210]
- IC50 (HIV-1CH58TF): 6.97 µM
- recognition of infected cells by A32-AF647 with addition of 17b ([1]; 5 μg/ml 17b, 37° C.): significantly enhanced
- binding of infected cells by A32-AF647 in the presence of HIV+ plasma ([1]; 1:1000 diluted HIV+ plasma): significantly enhanced binding
- recognition of bystander cells by HIV+ plasma ([2]; added at the time of co-culture): significantly decreased
- ADCC-mediated killing of uninfected bystander CD4+ T cells ([2]; autologous PBMC and 5 HIV+ plasma): protecting uninfected bystander CD4+ T cells from ADCC-mediating killing
